Where a SMILES comes first, the peptide text is derived from it. [ ]: non-standard residue; d: D form. The star is where a group is joined. NHCH2CH2OH = OCCN*; For = O=C*
Experiments:
[1] = H+/Na+ transport assay of bead-derived peptides (one-point); type: biochemical; design: key: relative activity; mean of two control wells = 1.00; conditions: bead-derived peptide solution, EYPC/EYPG LUVs;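 further: relative to parent gramicidin A activity set to 1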
Method in brief: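 Pyranine (1.0 mM)-loaded LUVs containing egg yolk phosphatidylglycerol were prepared by film hydration, sonication and extrusion, then mixed with diluted bead-derived peptide in 96-well format and vortexed 30 min at room temperature. Fluorescence was normalized between untreated LUVs (0%) and Triton X-100 lysis (100%).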

[2] = cell viability/%
Method in brief: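 Peptide stocks diluted 250× in growth medium; P388 cells 1 × 10^4 cells/mL final; 37 °C, 5% CO2, 92 h. WST-1 + 1-methoxy PMS, 4 h, A415. Output: % viability.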

[3] = system: Streptococcus pyogenes SSI-9; assay: Antibacterial activity assay of bead-derived peptides (three concentrations); type: cell-based; design: key: +++: inhibition by the 640-fold diluted peptide solution; ++: inhibition by the 160-fold diluted solution; +: inhibition by the 40-fold diluted solution; -: no inhibition; conditions: S. pyogenes, bead-derived peptide solution, three concentrations
Method in brief: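 First, each peptide stock was diluted 4- and 16-fold in DMSO; next, the three solutions were mixed with S. pyogenes SSI-9 suspension (2 × 10^5 CFU) in cation-adjusted Mueller Hinton Broth plus 5% laked horse blood; finally, plates stood 18 h at 37 °C before checking for grown-cell precipitation.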

| SMILES | H+/Na+ transport activity normalized against the value of 1 (1.00) [1] | viability [2] | antibacterial activity [3] |
| --- | --- | --- | --- |
| CC(C)C[C@@H](NC(=O)[C@H](C)NC(=O)[C@H](NC(=O)[C@H](C)NC(=O)CNC(=O)[C@@H](NC=O)C(C)C)[C@H](C)O)C(=O)N[C@H](C(=O)N[C@H](CC(C)C)C(=O)N[C@@H](Cc1c[nH]c2ccccc12)C(=O)N[C@H](CC(C)C)C(=O)N[C@@H](Cc1c[nH]c2ccccc12)C(=O)N[C@@H](C(=O)N[C@@H](Cc1c[nH]c2ccccc12)C(=O)N[C@H](CC(C)C)C(=O)N[C@@H](Cc1c[nH]c2ccccc12)C(=O)NCCO)C(C)C)C(C)C [compound 789] (For-VGA[dT]A[dL]V[dL]W[dL]W[dV]W[dL]W-NHCH2CH2OH) | 1.08 | 100% | - |
| CNC(=O)C[C@@H](NC(=O)[C@H](Cc1c[nH]c2ccccc12)NC(=O)[C@H](NC(=O)[C@H](Cc1c[nH]c2ccccc12)NC(=O)[C@H](NC(=O)[C@H](Cc1c[nH]c2ccccc12)NC(=O)[C@@H](CC(C)C)NC(=O)[C@@H](NC(=O)[C@@H](CC(C)C)NC(=O)[C@H](C)NC(=O)[C@@H](CC(C)C)NC(=O)[C@H](C)NC(=O)CNC(=O)[C@@H](NC=O)C(C)C)C(C)C)C(C)C)C(C)C)C(=O)N[C@@H](Cc1c[nH]c2ccccc12)C(=O)NCCO [compound 6265] (For-VGA[dL]A[dL]V[dL]W[dV]W[dV]W[dD](NHMe)W-NHCH2CH2OH) | 1.03 | 79.9% | - |
| CC(C)C[C@@H](NC(=O)[C@H](Cc1c[nH]c2ccccc12)NC(=O)[C@@H](CC(C)C)NC(=O)[C@H](Cc1c[nH]c2ccccc12)NC(=O)[C@H](NC(=O)[C@H](Cc1c[nH]c2ccccc12)NC(=O)[C@@H](CC(C)C)NC(=O)[C@@H](NC(=O)[C@H](NC(=O)[C@H](C)NC(=O)[C@H](NC(=O)[C@H](C)NC(=O)CNC(=O)[C@@H](NC=O)C(C)C)[C@H](C)O)C(C)C)C(C)C)C(C)C)C(=O)N[C@@H](Cc1c[nH]c2ccccc12)C(=O)NCCO [compound 8827] (For-VGA[dT]A[dV]V[dL]W[dV]W[dL]W[dL]W-NHCH2CH2OH) | 1.22 | 80.7% | - |
| CC(C)C[C@@H](NC(=O)[C@@H](NC(=O)[C@H](NC(=O)[C@H](C)NC(=O)[C@H](NC(=O)[C@H](C)NC(=O)CNC(=O)[C@@H](NC=O)C(C)C)[C@H](C)O)C(C)C)C(C)C)C(=O)N[C@@H](Cc1c[nH]c2ccccc12)C(=O)N[C@@H](C(=O)N[C@@H](Cc1c[nH]c2ccccc12)C(=O)N[C@@H](C(=O)N[C@@H](Cc1c[nH]c2ccccc12)C(=O)N[C@@H](C(=O)N[C@@H](Cc1c[nH]c2ccccc12)C(=O)NCCO)C(C)C)C(C)C)[C@H](C)O [compound 1156] (For-VGA[dT]A[dV]V[dL]W[dT]W[dV]W[dV]W-NHCH2CH2OH) | 1.03 | 85.9% | - |
| CC(C)C[C@@H](NC(=O)[C@H](C)NC(=O)CNC(=O)[C@@H](NC=O)C(C)C)C(=O)N[C@@H](C)C(=O)N[C@H](CC(C)C)C(=O)N[C@H](C(=O)N[C@@H](C(=O)N[C@@H](Cc1c[nH]c2ccccc12)C(=O)N[C@@H](C(=O)N[C@@H](Cc1c[nH]c2ccccc12)C(=O)N[C@@H](C(=O)N[C@@H](Cc1c[nH]c2ccccc12)C(=O)N[C@H](CC(C)C)C(=O)N[C@@H](Cc1c[nH]c2ccccc12)C(=O)NCCO)C(C)C)C(C)C)C(C)C)C(C)C [compound 905] (For-VGA[dL]A[dL]V[dV]W[dV]W[dV]W[dL]W-NHCH2CH2OH) | 1.19 | 90.6% | + |
| CNC(=O)C[C@@H](NC(=O)[C@@H](NC(=O)[C@@H](CC(C)C)NC(=O)[C@H](C)NC(=O)[C@H](NC(=O)[C@H](C)NC(=O)CNC(=O)[C@@H](NC=O)C(C)C)C(C)C)C(C)C)C(=O)N[C@@H](Cc1c[nH]c2ccccc12)C(=O)N[C@@H](C(=O)N[C@@H](Cc1c[nH]c2ccccc12)C(=O)N[C@@H](C(=O)N[C@@H](Cc1c[nH]c2ccccc12)C(=O)N[C@H](CC(C)C)C(=O)N[C@@H](Cc1c[nH]c2ccccc12)C(=O)NCCO)C(C)C)C(C)C [compound 5991] (For-VGA[dV]A[dL]V[dD](NHMe)W[dV]W[dV]W[dL]W-NHCH2CH2OH) | 1.00 | 94.7% | - |
| CC(C)C[C@@H](NC(=O)[C@H](C)NC(=O)CNC(=O)[C@@H](NC=O)C(C)C)C(=O)N[C@@H](C)C(=O)N[C@H](CC(C)C)C(=O)N[C@H](C(=O)N[C@H](CC(C)C)C(=O)N[C@@H](Cc1c[nH]c2ccccc12)C(=O)N[C@@H](C(=O)N[C@@H](Cc1c[nH]c2ccccc12)C(=O)N[C@@H](C(=O)N[C@@H](Cc1c[nH]c2ccccc12)C(=O)N[C@H](CC(C)C)C(=O)N[C@@H](Cc1c[nH]c2ccccc12)C(=O)NCCO)[C@H](C)O)C(C)C)C(C)C [compound 5736] (For-VGA[dL]A[dL]V[dL]W[dV]W[dT]W[dL]W-NHCH2CH2OH) | 1.11 | 95.5% | - |
| CC(C)C[C@@H](NC(=O)[C@H](C)NC(=O)[C@H](NC(=O)[C@H](C)NC(=O)CNC(=O)[C@@H](NC=O)C(C)C)[C@H](C)O)C(=O)N[C@H](C(=O)N[C@@H](C(=O)N[C@@H](Cc1c[nH]c2ccccc12)C(=O)N[C@@H](C(=O)N[C@@H](Cc1c[nH]c2ccccc12)C(=O)N[C@H](CC(C)C)C(=O)N[C@@H](Cc1c[nH]c2ccccc12)C(=O)N[C@H](CC(C)C)C(=O)N[C@@H](Cc1c[nH]c2ccccc12)C(=O)NCCO)[C@H](C)O)C(C)C)C(C)C [compound 6896] (For-VGA[dT]A[dL]V[dV]W[dT]W[dL]W[dL]W-NHCH2CH2OH) | 1.18 | 100% | - |
| CC(C)C[C@@H](NC(=O)[C@H](Cc1c[nH]c2ccccc12)NC(=O)[C@@H](CC(C)C)NC(=O)[C@H](Cc1c[nH]c2ccccc12)NC(=O)[C@H](NC(=O)[C@H](Cc1c[nH]c2ccccc12)NC(=O)[C@H](NC(=O)[C@@H](NC(=O)[C@H](NC(=O)[C@H](C)NC(=O)[C@H](NC(=O)[C@H](C)NC(=O)CNC(=O)[C@@H](NC=O)C(C)C)C(C)C)C(C)C)C(C)C)C(C)C)[C@H](C)O)C(=O)N[C@@H](Cc1c[nH]c2ccccc12)C(=O)NCCO [compound 10042] (For-VGA[dV]A[dV]V[dV]W[dT]W[dL]W[dL]W-NHCH2CH2OH) | 1.06 | 100% | - |
| CC(C)C[C@@H](NC(=O)[C@H](C)NC(=O)CNC(=O)[C@@H](NC=O)C(C)C)C(=O)N[C@@H](C)C(=O)N[C@H](CC(C)C)C(=O)N[C@H](C(=O)N[C@@H](C(=O)N[C@@H](Cc1c[nH]c2ccccc12)C(=O)N[C@@H](C(=O)N[C@@H](Cc1c[nH]c2ccccc12)C(=O)N[C@H](CC(C)C)C(=O)N[C@@H](Cc1c[nH]c2ccccc12)C(=O)N[C@@H](C(=O)N[C@@H](Cc1c[nH]c2ccccc12)C(=O)NCCO)[C@H](C)O)C(C)C)C(C)C)C(C)C [compound 9823] (For-VGA[dL]A[dL]V[dV]W[dV]W[dL]W[dT]W-NHCH2CH2OH) | 1.08 | 100% | - |
| CNC(=O)C[C@@H](NC(=O)[C@@H](NC(=O)[C@@H](CC(C)C)NC(=O)[C@H](C)NC(=O)[C@H](NC(=O)[C@H](C)NC(=O)CNC(=O)[C@@H](NC=O)C(C)C)C(C)C)C(C)C)C(=O)N[C@@H](Cc1c[nH]c2ccccc12)C(=O)N[C@H](CC(C)C)C(=O)N[C@@H](Cc1c[nH]c2ccccc12)C(=O)N[C@H](CC(C)C)C(=O)N[C@@H](Cc1c[nH]c2ccccc12)C(=O)N[C@H](CC(C)C)C(=O)N[C@@H](Cc1c[nH]c2ccccc12)C(=O)NCCO [compound 1242] (For-VGA[dV]A[dL]V[dD](NHMe)W[dL]W[dL]W[dL]W-NHCH2CH2OH) | 1.13 | 65.8% | - |
| CC(C)C[C@@H](NC(=O)[C@H](C)NC(=O)CNC(=O)[C@@H](NC=O)C(C)C)C(=O)N[C@@H](C)C(=O)N[C@H](CC(C)C)C(=O)N[C@H](C(=O)N[C@@H](C(=O)N[C@@H](Cc1c[nH]c2ccccc12)C(=O)N[C@@H](C(=O)N[C@@H](Cc1c[nH]c2ccccc12)C(=O)N[C@H](CC(C)C)C(=O)N[C@@H](Cc1c[nH]c2ccccc12)C(=O)N[C@@H](C(=O)N[C@@H](Cc1c[nH]c2ccccc12)C(=O)NCCO)C(C)C)C(C)C)[C@H](C)O)C(C)C [compound 8043] (For-VGA[dL]A[dL]V[dT]W[dV]W[dL]W[dV]W-NHCH2CH2OH) | 1.04 | 100% | - |
| CC(C)C[C@@H](NC(=O)[C@H](C)NC(=O)CNC(=O)[C@@H](NC=O)C(C)C)C(=O)N[C@@H](C)C(=O)N[C@H](CC(C)C)C(=O)N[C@H](C(=O)N[C@@H](C(=O)N[C@@H](Cc1c[nH]c2ccccc12)C(=O)N[C@@H](C(=O)N[C@@H](Cc1c[nH]c2ccccc12)C(=O)N[C@@H](C(=O)N[C@@H](Cc1c[nH]c2ccccc12)C(=O)N[C@H](CC(C)C)C(=O)N[C@@H](Cc1c[nH]c2ccccc12)C(=O)NCCO)C(C)C)C(C)C)[C@H](C)O)C(C)C [compound 4784] (For-VGA[dL]A[dL]V[dT]W[dV]W[dV]W[dL]W-NHCH2CH2OH) | 1.19 | 100% | - |

Reference: publication PMC7531004, “Discovery of gramicidin A analogues with altered activities by multidimensional screening of a one-bead-one-compound library” (Nature Communications, 2020)
